Assay results taken from patent US9732046B2, “Substituted 1,2,4-triazines as tubulin inhibitors” (YM Biosciences Australia Pty Ltd., priority 2003, dated 2017).

Key:
DU145 (Prostate Cancer) = assay: Cellular growth inhibition assay (MTT), DU145; type: cell-based; settings: Homo sapiens
Description: (§1) For screening purposes, compounds were diluted in 96 well plates at a concentration of 20 μM. Plates were warmed at 37° C. for 30 minutes before assay.
(§2) K562 (Chronic Myeloid Leukemia), PC3 (Prostate Cancer), and DU145 (Prostate Cancer) were obtained from the American Type Culture Collection (ATCC). K562 was grown in RPMI, with 10% FBS with Glutamx added. DU145 cells were cultured in DMED, with 10% FBS and Glutamx and MEM non-essential amino acids added. PC3 cells were grown in F12K medium, with 10% FBS and Glutamx and MEM non-essential amino acids added. All cells were grown at 37° C. in 5% CO2.
(§3) Cell suspensions were prepared by harvesting cells from culture. (Cells used in this test should be in later log phase growth and high viability.) Cells were diluted in correct growth medium to 1.1× final concentration (from 50000 cell/mL to 200,000 cell/mL, depending on cell line).
(§4) Compounds to be tested were added (10 μL, 10× final concentration) to a flat bottom 96-well plate. The cellular suspension (90 μL per well) was added, and the plate incubated for 40 hr at 37° C., 5% CO2. MTT (20 μL per well, 5 mg/mL in PBS) was added and the plates were returned to the incubator for a further 6 hours. Lysis buffer (100 μL per well, 10% SDS, 0.01N HCl) was added and the plate stored in the incubator overnight. The plate was then read at 590 nm.

PC3 (Prostate Cancer) = assay: Cellular growth inhibition assay (MTT), PC3; type: cell-based; settings: Table 1, 40 hr incubation
Description: as §1, §2, §3, §4

[1] = system: K562 (Chronic Myeloid Leukemia); assay: Cellular growth inhibition assay (MTT), K562; type: cell-based; settings: Homo sapiens, Table 1, 40 hr incubation
Description: as §1, §2, §3, §4

[2] = target: T1, TelJak2 (BaF3 TELJAK cells, TEL/Jak2 fusion) (Homo sapiens, UniProt O60674); assay: Cellular growth inhibition assay (MTT), BaF3 TEL:JAK2 cell line; type: cell-based
T1 construct: The regions encompassing the kinase domain of JAK2 (nucleotides 2994-3914); expressed in transfected cells; host or cells: BaF3 cells bearing the pTET-off plasmid, transfected with pTELJAK2 (pTRE2 vector); the other entry of the earlier key: ETV6 (P41212, Transcription factor ETV6)
Description: as §1
(§5) The coding region encompassing nucleotides 1-487 of TEL was amplified by PCR using the oligonucleotides 5TEL (5′-GGAGGATCCTGATCTCTCTCGCTGTGAGAC-3′) (SEQ ID NO: 1) and 3TEL (5′-AGGC GTCGACTTCTTCTTGATGGTTCTG-3′) (SEQ ID NO: 2) and U937 mRNA as template. A BamH I site was incorporated into the 5TEL primer, and a Sal I site was incorporated into the 3TEL primer. The regions encompassing the kinase domain of JAK2 (nucleotides 2994-3914; JAK2F 5′-ACGC GTCGACGGTGCCTTTGAAGACCGGGAT-3 (SEQ ID NO: 3); JAK2R 5′-ATAGTTTAGCGGCCGCTCAGAATGAAGGTCATTT-3′) (SEQ ID NO: 4) and JAK3 (nucleotides 2520-3469; JAK3F 5′-GAAGTCGACTATGCCTGCCAAGACCCCACGATCTT-3′ (SEQ ID NO: 5); JAK3R 5′-GGATCTAGACTATGAAAAGGACAGGGAGTGGTGTTT-3′ (SEQ ID NO: 6)) were generated by PCR using Taq DNA polymerase (Gibco/BRL) and U937 mRNA as template. A Sal I site was incorporated into the forward primer of JAK2 and JAK3, a Not I site was incorporated into the JAK2 reverse primer and a Xba I site was added to the reverse primer of JAK3.
(§6) A TEL/Jak2 fusion was generated by digestion of the TELPCR product with BamH I/Sa1 I, digestion of the JAK2 PCR product with Sa1 I/Not I followed by ligation and subcloning into the mammalian expression Vector pTRE 2 (Clontech) digested with BamH I-Not I (pTELJAK2). For JAK3 Sa1 I/Not I cleaved kinase domain PCR product was ligated with BamH I/Sa1 I cleaved TELproduct followed by ligation into BamH I/Not I cleaved pTRE2 (pTELJAK3).
(§7) The growth factor dependent myelomonocytic cell line BaF3 bearing the pTET-off plasmid (Clontech) was transfected with either pTELJAK2 or pTELJAK3 and the cells selected for factor independent growth. BaF 3 wild type cells were cultured in DMEM 10% FCS, 10% WEHI 3B conditioned medium. BaF3 TELJAK cells were cultured in DMEM 10% Tet-System Approved FBS (without WEHI 3B conditioned medium).
as §3, §4

[3] = target: T2, TelJak3 (BaF3 TELJAK cells, TEL/JAK3 fusion) (Homo sapiens, UniProt P52333); assay: Cellular growth inhibition assay (MTT), BaF3 TEL:JAK3 cell line; type: cell-based
T2 construct: For JAK3 Sa1 I/Not I cleaved kinase domain PCR product was ligated with BamH I/Sa1 I cleaved TELproduct; expressed in transfected cells; host or cells: BaF3 cells bearing the pTET-off plasmid, transfected with pTELJAK3 (pTRE2 vector); the other entry of the earlier key: ETV6 (P41212, Transcription factor ETV6)
Description: as §1, §5, §6, §7, §3, §4

[4] = system: Tubulin (microtubule protein); assay: Tubulin assay (turbidometric assay of microtubule assembly); type: biochemical; settings: 50 μM, absorbance at 340 nm, 37° C.
Description: Turbidometric assays of microtubule assembly were performed by incubating microtubule protein in cuvettes at 37° C. in a thermostatically controlled spectrophotometer measuring the change in absorbance at 340 nm over time. The microtubule protein was incubated with the each test compound at 0° C. and polymerisation was initiated by addition of 1 mM GTP, prior to heating to 37° C.

[5] = DU-145, Table 1, 40 hr incubation
[6] = DU-145, Table 2, 40 hr incubation

T2 sequence (P52333 with tags, fused parts or gaps): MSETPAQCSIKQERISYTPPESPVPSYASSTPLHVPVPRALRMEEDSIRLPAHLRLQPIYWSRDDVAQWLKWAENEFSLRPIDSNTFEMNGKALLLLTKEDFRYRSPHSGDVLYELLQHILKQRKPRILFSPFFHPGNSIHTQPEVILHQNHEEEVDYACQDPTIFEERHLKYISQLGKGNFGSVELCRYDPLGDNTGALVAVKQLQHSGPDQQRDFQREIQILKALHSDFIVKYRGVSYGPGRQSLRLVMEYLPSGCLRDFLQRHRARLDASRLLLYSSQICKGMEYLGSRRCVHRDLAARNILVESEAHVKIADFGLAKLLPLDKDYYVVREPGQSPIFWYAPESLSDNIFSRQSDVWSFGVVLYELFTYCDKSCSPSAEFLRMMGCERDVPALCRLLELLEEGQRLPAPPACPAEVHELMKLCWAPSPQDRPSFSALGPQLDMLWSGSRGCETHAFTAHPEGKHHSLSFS
T1 sequence (O60674 with tags, fused parts or gaps): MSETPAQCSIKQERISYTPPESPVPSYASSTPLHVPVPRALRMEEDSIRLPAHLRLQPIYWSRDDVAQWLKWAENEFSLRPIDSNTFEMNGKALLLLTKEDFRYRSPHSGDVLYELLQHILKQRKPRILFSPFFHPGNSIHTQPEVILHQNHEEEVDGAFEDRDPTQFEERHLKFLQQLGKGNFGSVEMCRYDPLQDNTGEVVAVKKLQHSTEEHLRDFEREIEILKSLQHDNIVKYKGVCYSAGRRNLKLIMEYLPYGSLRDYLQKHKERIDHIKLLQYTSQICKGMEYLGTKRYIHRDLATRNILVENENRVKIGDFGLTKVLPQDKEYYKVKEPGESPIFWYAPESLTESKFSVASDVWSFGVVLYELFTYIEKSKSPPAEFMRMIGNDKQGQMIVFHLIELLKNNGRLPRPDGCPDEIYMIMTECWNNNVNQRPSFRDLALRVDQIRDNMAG

| Structure (SMILES) | inhibition at 20 µM (DU145 (Prostate Cancer); [5]) | inhibition at 20 µM (PC3 (Prostate Cancer)) | inhibition at 20 µM [1] | inhibition at 20 µM ([2]; Table 1, 40 hr incubation) | inhibition at 20 µM ([3]; Table 1, 40 hr incubation) | Tubulin inhibition of tubulin polymerisation ([4]; Table 1) | inhibition at 20 µM (DU145 (Prostate Cancer); [6]) | inhibition at 20 µM ([2]; Table 2, 40 hr incubation) | inhibition at 20 µM ([3]; Table 2, 40 hr incubation) | Tubulin inhibition of tubulin polymerisation ([4]; Table 2) |
| --- | --- | --- | --- | --- | --- | --- | --- | --- | --- | --- |
| CC[C@H](Nc1nc(-c2ccc(O)c(OC)c2)ncc1C)c1cccnc1 | > 50% | > 50% | > 50% | > 50% | > 50% | + (compounds which inhibited tubulin polymerisation by greater than 50% at 50 μM) |  |  |  |  |
| CCNC(=O)Nc1ccc(-c2cncc(N[C@@H](COC)c3ccccc3)n2)cc1OC | > 50% | > 50% | > 50% | > 50% | > 50% | + (compounds which inhibited tubulin polymerisation by greater than 50% at 50 μM) |  |  |  |  |
| CCCC(Nc1cncc(-c2ccc(CN3CCCC3)cc2)n1)c1ccccc1 (stereo not drawn) | > 50% | > 50% | > 50% | > 50% | > 50% | + (compounds which inhibited tubulin polymerisation by greater than 50% at 50 μM) |  |  |  |  |
| CCCC(Nc1cncc(-c2ccc(OCCN(CC)CC)c(OC)c2)n1)c1ccccc1 (stereo not drawn) | > 50% | > 50% | > 50% | > 50% | > 50% | + (compounds which inhibited tubulin polymerisation by greater than 50% at 50 μM) |  |  |  |  |
| CCCC(Nc1nc(-c2ccc(NC(=O)NCC)c(OC)c2)cnc1C)c1ccccc1 (stereo not drawn) | > 50% | > 50% | > 50% | > 50% | > 50% | + (compounds which inhibited tubulin polymerisation by greater than 50% at 50 μM) |  |  |  |  |
| CCC[C@H](Nc1cncc(-c2ccc(NC(=O)NCC)c(OC)c2)n1)c1ccccn1 | > 50% | > 50% | > 50% | > 50% | > 50% | + (compounds which inhibited tubulin polymerisation by greater than 50% at 50 μM) |  |  |  |  |
| CCCC(Nc1cncc(-c2ccc(CNC(=O)C3CCCNC3)cc2)n1)c1ccccc1 (stereo not drawn) | > 50% | > 50% | > 50% | > 50% | > 50% | + (compounds which inhibited tubulin polymerisation by greater than 50% at 50 μM) |  |  |  |  |
| CCCC(Nc1cncc(-c2ccc(OCCCN3CCCC3)c(OC)c2)n1)c1ccccc1 (stereo not drawn) | > 50% | > 50% | > 50% | > 50% | > 50% | + (compounds which inhibited tubulin polymerisation by greater than 50% at 50 μM) |  |  |  |  |
| CCC[C@H](Nc1cncc(-c2ccc(NC(=O)NCC)c(C)c2)n1)c1cccnc1 | > 50% | > 50% | > 50% | > 50% | > 50% | + (compounds which inhibited tubulin polymerisation by greater than 50% at 50 μM) |  |  |  |  |
| CCCC(Nc1cncc(-c2cc(C)c(O)c(C)c2)c1)c1ccccc1 (stereo not drawn) | > 50% | > 50% | > 50% | > 50% | > 50% | + (compounds which inhibited tubulin polymerisation by greater than 50% at 50 μM) |  |  |  |  |
| COc1cc(-c2cncc(N[C@@H](C)c3ccccc3)c2)ccc1O | > 50% | > 50% | > 50% | > 50% | > 50% | + (compounds which inhibited tubulin polymerisation by greater than 50% at 50 μM) |  |  |  |  |
| COc1cc(-c2cncc(NC(C)c3cccc(NC(=O)c4cccnc4)c3)n2)ccc1O (stereo not drawn) [drawing 127] |  |  |  |  |  |  | > 50% | > 50% | > 50% | + (compounds which inhibited tubulin polymerisation by greater than 50% at 50 μM) |
| COc1cc(-c2cncc(NC(C)c3cccc(NC(=O)[C@H]4CCCN4)c3)n2)ccc1O (stereo partly drawn) |  |  |  |  |  |  | > 50% | > 50% | > 50% | + (compounds which inhibited tubulin polymerisation by greater than 50% at 50 μM) |
| COc1cc(-c2cncc(N[C@@H](C)c3ccccc3)n2)ccc1O |  |  |  |  |  |  | > 50% | > 50% | > 50% | + (compounds which inhibited tubulin polymerisation by greater than 50% at 50 μM) |
| CC[C@H](Nc1cncc(-c2ccc(O)c(OC)c2)n1)c1ccccc1 |  |  |  |  |  |  | > 50% | > 50% | > 50% | + (compounds which inhibited tubulin polymerisation by greater than 50% at 50 μM) |
| COc1cc(-c2cncc(NC(C)c3ccc(-c4cccnc4)cc3)n2)ccc1O (stereo not drawn) |  |  |  |  |  |  | > 50% | > 50% | > 50% | + (compounds which inhibited tubulin polymerisation by greater than 50% at 50 μM) |
| COc1cc(-c2cncc(NC(C)c3cccc(NC(=O)c4cccnc4)c3)n2)ccc1O (stereo not drawn) [drawing 124] |  |  |  |  |  |  |  |  |  | + (compounds which inhibited tubulin polymerisation by greater than 50% at 50 μM) |
| CCCC(Nc1cncc(-c2ccc(OCCCN3CCOCC3)c(OC)c2)n1)c1cccnc1 (stereo not drawn) | < 50% | < 50% | < 50% | > 50% | > 50% |  |  |  |  |  |
| CCCC(Nc1cncc(-c2ccc(CN3CCOCC3)cc2)n1)c1ccccc1 (stereo not drawn) | < 50% | < 50% | < 50% | > 50% | < 50% |  |  |  |  |  |
| CCCC(Nc1cncc(-c2ccc(OCCN(CC)CC)c(OC)c2)n1)c1cncc(C)c1 (stereo not drawn) | < 50% | < 50% | > 50% | > 50% | > 50% |  |  |  |  |  |
